Data published in US20140088184A1 (priority 2011, published 2014).
pIC50: −log10 of the molar value. Where two headings read alike, the source gives them in different places.

How the values were obtained:
JFH1-Rluc virus [1] = assay: microbe, parasite or virus in culture; assay type: cell-based, hepatitis C virus (isolate JFH1, genotype 2a); details: for relative viral infection / inhibition of viral infection: 50 μM during 2 h infection of Huh-7 cells, luciferase 48 h after infection; for relative viral infection: compared with DMSO; for inhibition of viral infection: EGCG from CALBIOCHEM or EXTRASYNTHESE
[2] = test system: HCVpp expressing envelope proteins E1 and E2 of the HCV virus of genotypes 1a, 1b, 2a, 2b, 3, 4, 5, 6; assay type: cell-based, hepatitis C virus; details: for relative infection: vs DMSO
JFH1-Rluc virus [3] = assay: Split-up of HCV entry steps (attachment, receptor interaction, endocytosis/fusion), JFH-Luc in Huh-7 cells; details: for step of HCV entry inhibited: entry split up into its three constituent steps, general statement of the description
HCV viral replication = assay: Viral replication (results not shown); assay type: cell-based, hepatitis C virus
[4] = test system: VSVpp (virus like particles expressing the envelope protein of VSV); assay type: cell-based, vesicular stomatitis virus
yellow fever virus (YFV) = assay type: cell-based; details: Huh-7 cells, EGCG 50 μM vs DMSO
Sindbis virus (SINV) = assay type: cell-based; details: Huh-7 cells, EGCG 50 μM vs DMSO
[5] = test system: bovine viral diarrhoea virus (BVDV); assay type: cell-based; details: MDBK cells, EGCG 50 μM vs DMSO
JFH1 virus = assay: Cell to cell transmission of HCVcc (JFH1) in Huh-7 cells under agarose; assay type: cell-based, hepatitis C virus; details: EGCG 50 μM in 1% agarose medium, 72 h post-infection; control sites average 45
Protocol: The Huh-7 cells cultured in 24 well plates are infected with HCVcc over a period of 2 hours. The inoculum was eliminated and replaced by DMEM medium supplemented with GLUTAMAX®-1,10% of FCS and 1% low melting point agarose gel (SeaPlaque® Agarose marketed by LONZA®) containing EGCG (50 μM) or an equivalent volume of Dimethyl Sulfoxide (DMSO) as a control. The cells are incubated at 37° C. over a period of 3 days at the end of which the agarose is eliminated and the infection sites are detected using indirect immunofluorescence for HCV E1 protein as previously described.
A second mode of viral infection is the transmission of the virus from cell to cell. […] The agarose prevents infection of cells by the virus secreted into the medium and thus makes it possible to observe the cell to cell transmission of the virus by virtue of the cells being in contact amongst themselves.
At seventy-two hours post-infection, the cells were fixed and infection was detected by immunofluorescence after labelling with an anti-E1 antibody. A step of detection is then carried out with a Cy3 coupled secondary antibody. The nuclei are stained with DAPI staining. The number of cells per infection site was quantified (FIG. 5). In the presence of EGCG the infection sites are much smaller. They contain an average of 3-4 infected cells showing that the virus has not propagated after infecting a cell. […]

HCVcc [6] = assay: microbe, parasite or virus in culture; assay type: cell-based
HCVcc [7] = assay: Quantitative binding test: HCVcc attachment to Huh-7 cells, HCV RNA by quantitative RT-PCR; assay type: cell-based, hepatitis C virus; details: 1 hour at 4° C., MOI 10, vs DMSO; for virus attachment to the cell surface: 50 μM
Protocol: HCVcc. For the quantitative “binding” experiments, the HCVcc virus was mass produced and purified by concentration and separation in a gradient of iodixanol. Supernatants of infected cells were precipitated with 8% PEG 6000 at 4° C. overnight and centrifuged for 25 minutes at 10 000 rpm. The pellets were resuspended in 1 mL, of PBS, loaded on a continuous iodixanol gradient (10-40%), and centrifuged at 36 000 rpm for 16 hours at 4° C. Fractions of 500 μL were collected and the titre of each fraction was determined. The most infectious fractions were combined in order to perform the experiments.
Quantitative “Bindinq” Test. The HCVcc virus was contacted with the Huh-7 cells for 1 hour at 4° C. in the presence of EGCG (50 μM), delphinidin chloride (50 μM) or porcine intestinal heparin (500 ug/mL). After 3 washes with PBS, the total RNAs (viral and cellular) were extracted using the NucleoSpin RNA II kit (Macherey-Nagel, Düren, Germany) and the HCV RNA quantified by quantitative RT-PCR (Castelain et al, J Clin Virol 2004). Heparin was used in parallel as a control.
In order to determine whether the step of attachment to the cell surface was inhibited by EGCG, quantitative “binding” (or attachment) tests have been carried out. The action of delphinidin chloride was tested in parallel. Heparin, a known inhibitor of HCV attachment to the cell surface, was used as a positive control. The cells were incubated with HCVcc purified to a multiplicity of infection of 10 for 1 hour at 4° C. in the presence of DMSO, 50 M of EGCG, 50 μM of delphinidin chloride or 500 μg/mL of heparin. The cells were washed 3 times with cold PBS and the total RNA extracted. The amount of virus fixed was determined by quantifying the viral genomic RNA by means of quantitative RT-PCR.

HCV JFH1 = assay: Successive infections with supernatants of infected cells (passages P0 to P4); details: 50 μM EGCG, passages P0 to P4, 48 h each
[8] = genotypes 1a, 1b, 2a, 2b, 3, 4, 5 and 6, general statement of the description, no concentration

Oc1cc(O)c2c(c1)O[C@H](c1ccc(O)c(O)c1)[C@@H](O)C2 [(+)-catechin, reference compound]
relative viral infection (JFH1-Rluc virus [1]): identical to that observed for DMSO

Oc1cc(O)c2c(c1)O[C@H](c1ccc(O)c(O)c1)[C@H](O)C2 [(−)-epicatechin, reference compound]
relative viral infection (JFH1-Rluc virus [1]): identical to that observed for DMSO

O=C(O[C@@H]1Cc2c(O)cc(O)cc2O[C@@H]1c1ccc(O)c(O)c1)c1cc(O)c(O)c(O)c1 [ECG, (2R,3R)-2-(3,4-Dihydroxyphenyl)-3,4-dihydro-1(2H)-benzopyran-3,5,7-triol 3-(3,4,5-trihydroxybenzoate)]
inhibition of viral infection (JFH1-Rluc virus [1]): about 40% | inhibitory effect across viral genotypes of HCV [2, 8]: observed in all the viral genotypes of HCV | step of HCV entry inhibited (JFH1-Rluc virus [3]): only the step of attachment is inhibited

Oc1cc(O)c2c(c1)O[C@H](c1cc(O)c(O)c(O)c1)[C@H](O)C2 [EGC, (2R,3R)-2-(3,4,5-trihydroxyphenyl) chroman-3,5,7-triol]
inhibition of viral infection (JFH1-Rluc virus [1]): ~80% | inhibitory effect across viral genotypes of HCV [2, 8]: observed in all the viral genotypes of HCV | step of HCV entry inhibited (JFH1-Rluc virus [3]): only the step of attachment is inhibited

O=C(O[C@@H]1Cc2c(O)cc(O)cc2O[C@@H]1c1cc(O)c(O)c(O)c1)c1cc(O)c(O)c(O)c1 [EGCG, (2R,3R)-5,7-dihydroxy-2-(3,4,5-trihydroxyphenyl)-3,4-dihydro-2H-chromen-3-yl 3,4,5-trihydroxybenzoate]
decrease of viral infection (factor) (JFH1-Rluc virus [1]; 50 μM EGCG during 2 h infection of Huh-7 cells): greater than 10 | inhibition of viral infection (JFH1-Rluc virus [1]): greater than 95% | pIC50 (JFH1-Rluc virus [1]; Hepatitis C virus, Huh-7, read-out: IC50 (viral infection)): 5.30 | effect on viral entry (JFH1-Rluc virus [1]; non infected cells treated with the molecule before or after infection): no effect | inhibitory effect with pretreated virus (JFH1-Rluc virus [1]; virus incubated 45 minutes with 50 μM EGCG before infection): increase in the inhibitory effect | viral replication (HCV viral replication): not affected | effect on the infection by HCVpp of all genotypes tested ([2]; EGCG 50 μM): inhibitory effect | relative infection ([2]; HCVpp genotype 1b, EGCG 50 μM): substantially nil | relative infection ([2]; HCVpp genotype 2a, EGCG 50 μM): substantially nil | relative infection ([2]; HCVpp genotype 2b, EGCG 50 μM): substantially nil | relative infection ([2]; HCVpp genotype 4, EGCG 50 μM): substantially nil | inhibitory effect across viral genotypes of HCV [2, 8]: observed in all the viral genotypes of HCV | effect on infection by the VSVpp [4]: no effect | relative infection rate [4]: 85% | effect on cell infection (yellow fever virus (YFV)): does not have an inhibitory effect | effect on cell infection (Sindbis virus (SINV)): does not have an inhibitory effect | effect on cell infection [5]: does not have an inhibitory effect | number of cells per infection site (average) (JFH1 virus): 3-4 infected cells | pIC50 (HCVcc [6]; Hepatitis C virus, Huh-7; read-out: IC50 (concentration inhibiting 50% infection)): ~4.96 | virus attachment to the cell surface (HCVcc [7]): strong decrease | percentage of cells infected in each passage of supernatant (HCV JFH1): elimination of HCV from the culture supernatant from the third passage onwards and the complete elimination in the fourth passage | infection (luciferase activity) (JFH1-Rluc virus [3]; 50 μM EGCG during all three steps of viral entry (Sample 5)): significant reduction of infection | infection (luciferase activity) (JFH1-Rluc virus [3]; 50 μM EGCG during the step of attachment, 1 h at 4° C. (Sample 2)): significant reduction of infection | infection (luciferase activity) (JFH1-Rluc virus [3]; 50 μM EGCG during the step of endocytosis or fusion, 1 h at 37° C. (Sample 4)): does not seem to have any effect | infection (luciferase activity) (JFH1-Rluc virus [3]; 50 μM EGCG during the step of interaction with host cell receptors (Sample 3)): does not seem to have any effect | step of HCV entry inhibited (JFH1-Rluc virus [3]): only the step of attachment is inhibited

Oc1cc(O)c2cc(O)c(-c3cc(O)c(O)c(O)c3)[o+]c2c1 [delphinidin chloride, 3,3′,4′,5,5′,7-Hexahydroxyflavylium chloride]
inhibitory effect across viral genotypes of HCV [2]: observed in all the viral genotypes of HCV | pIC50 (HCVcc [6]; Hepatitis C virus, Huh-7, read-out: IC50 (concentration inhibiting 50% infection)): ~5.46 | virus attachment to the cell surface (HCVcc [7]): strong decrease | step of HCV entry inhibited (JFH1-Rluc virus [3]): only the step of attachment is inhibited

heparin [reference compound]
attachment of the virus to the surface of cells (HCVcc [7]; 500 μg/mL, positive control): greatly reduced
